Converted amounts (≈) assume the structure as drawn.
Test system: not listed separately
Assay: Unbound fraction in human plasma by equilibrium dialysis method
Format: ADME, cell-free
Settings: not given

SMILES | fraction unbound
CCC1(C)NC(=O)c2cc(S(=O)(=O)Nc3ccc(F)cc3F)cc(Cl)c2NC1=O (stereo not given) | 0.017

Test system: not listed separately
Assay: Apparent permeability of the compound from apical to basolateral side in human Caco2 cells
Settings: Caco-2, Papp

SMILES | Papp A→B [×10⁻⁶ cm/s]
CC[C@]1(C)NC(=O)c2cc(S(=O)(=O)Nc3ccc(F)cc3F)ccc2NC1=O | 8
CC[C@]1(C)NC(=O)c2cc(S(=O)(=O)Nc3ccc(C(F)(F)F)cc3F)ccc2NC1=O | 9
COc1c(S(=O)(=O)Nc2ccc(C(F)(F)F)cc2)ccc2c1C(=O)NC(C)(C)C(=O)N2 | 7
COc1cc2c(cc1S(=O)(=O)Nc1ccc(C(F)(F)F)cc1)C(=O)NC(C)(C)C(=O)N2 | 1
COc1cc(S(=O)(=O)Nc2ccc(C(F)(F)F)cc2)cc2c1NC(=O)C(C)(C)NC2=O | 12
Cc1c(S(=O)(=O)Nc2ccc(C(F)(F)F)cc2)ccc2c1C(=O)NC(C)(C)C(=O)N2 | 9
Cc1cc(S(=O)(=O)Nc2ccc(C(F)(F)F)cc2)cc2c1NC(=O)C(C)(C)NC2=O | 7
CC1(C)NC(=O)c2cc(S(=O)(=O)Nc3ccc(C(F)(F)F)cc3)ncc2NC1=O | 1
CC1(C)NC(=O)c2cc(S(=O)(=O)Nc3ccc(C(F)(F)F)cc3)cnc2NC1=O | 10
CC1(C)NC(=O)c2cc(S(=O)(=O)Nc3ccc(F)cc3F)ccc2NC1=O | 5
Cc1cc(S(=O)(=O)Nc2ccc(F)cc2F)cc2c1NC(=O)C(C)(C)NC2=O | 10
CC1(C)NC(=O)c2cc(S(=O)(=O)Nc3ccc(F)cc3F)cc(C#N)c2NC1=O | 3
CCC1(C)NC(=O)c2cc(S(=O)(=O)Nc3ccc(F)cc3F)cc(Cl)c2NC1=O (stereo not given) | 35

Biological target: Cytochrome P450 2D6 (Homo sapiens, UniProt P10635)
Sequence (P10635 whole entry): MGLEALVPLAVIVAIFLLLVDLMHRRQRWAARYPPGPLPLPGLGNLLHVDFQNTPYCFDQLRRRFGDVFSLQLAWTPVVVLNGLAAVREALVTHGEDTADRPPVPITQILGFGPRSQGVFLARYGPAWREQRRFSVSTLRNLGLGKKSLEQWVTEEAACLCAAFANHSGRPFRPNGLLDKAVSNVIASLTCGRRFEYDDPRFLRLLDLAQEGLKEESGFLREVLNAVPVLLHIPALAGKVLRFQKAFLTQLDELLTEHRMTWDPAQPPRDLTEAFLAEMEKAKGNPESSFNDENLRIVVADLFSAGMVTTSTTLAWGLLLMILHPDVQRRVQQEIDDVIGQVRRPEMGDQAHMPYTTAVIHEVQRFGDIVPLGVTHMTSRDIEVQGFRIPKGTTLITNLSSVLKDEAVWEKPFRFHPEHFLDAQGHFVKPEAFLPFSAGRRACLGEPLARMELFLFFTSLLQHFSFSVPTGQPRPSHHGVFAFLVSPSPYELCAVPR
Assay: Inhibition of CYP2D6 (unknown origin)
Format: ADME
Settings: not given

SMILES | IC50 [µM]
CCC1(C)NC(=O)c2cc(S(=O)(=O)Nc3ccc(F)cc3F)cc(Cl)c2NC1=O (stereo not given) | > 30

Biological target: Cytochrome P450 3A4 (Homo sapiens, UniProt P08684)
Sequence (P08684 whole entry): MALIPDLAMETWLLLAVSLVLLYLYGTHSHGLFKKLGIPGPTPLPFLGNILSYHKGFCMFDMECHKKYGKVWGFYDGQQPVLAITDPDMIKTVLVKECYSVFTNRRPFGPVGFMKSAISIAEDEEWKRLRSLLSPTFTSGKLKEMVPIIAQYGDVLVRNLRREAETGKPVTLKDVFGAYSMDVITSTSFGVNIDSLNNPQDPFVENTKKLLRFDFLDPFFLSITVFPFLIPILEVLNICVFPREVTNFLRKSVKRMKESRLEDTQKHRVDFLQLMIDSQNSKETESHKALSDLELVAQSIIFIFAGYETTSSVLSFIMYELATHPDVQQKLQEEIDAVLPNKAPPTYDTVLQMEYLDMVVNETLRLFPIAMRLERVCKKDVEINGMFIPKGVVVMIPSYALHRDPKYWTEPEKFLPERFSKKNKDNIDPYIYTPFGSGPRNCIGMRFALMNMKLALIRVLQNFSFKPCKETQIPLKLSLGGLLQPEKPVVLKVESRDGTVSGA
Assay: Inhibition of CYP3A4 (unknown origin)
Format: ADME
Settings: not given

SMILES | IC50 [µM]
CCC1(C)NC(=O)c2cc(S(=O)(=O)Nc3ccc(F)cc3F)cc(Cl)c2NC1=O (stereo not given) | > 30

Biological target: 2-acylglycerol O-acyltransferase 2 (Homo sapiens, UniProt Q3SYC2)
Sequence (Q3SYC2 whole entry): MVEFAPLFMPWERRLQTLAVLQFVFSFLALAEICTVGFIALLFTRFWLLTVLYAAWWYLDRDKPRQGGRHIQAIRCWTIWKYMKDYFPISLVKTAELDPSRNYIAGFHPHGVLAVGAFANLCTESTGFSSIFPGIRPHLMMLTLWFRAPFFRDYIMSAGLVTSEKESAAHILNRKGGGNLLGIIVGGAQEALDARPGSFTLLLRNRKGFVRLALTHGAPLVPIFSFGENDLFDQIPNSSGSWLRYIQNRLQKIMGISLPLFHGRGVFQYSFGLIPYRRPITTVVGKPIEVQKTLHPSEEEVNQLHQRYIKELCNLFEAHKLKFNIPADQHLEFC
Assay: Inhibition of human MGAT2 by Rapidfire LCMS assay
Settings: not given

SMILES | IC50 [µM]
CC[C@]1(C)NC(=O)c2cc(S(=O)(=O)Nc3ccc(C(F)(F)F)cc3F)ccc2NC1=O | 0.012
COc1c(S(=O)(=O)Nc2ccc(C(F)(F)F)cc2)ccc2c1C(=O)NC(C)(C)C(=O)N2 | > 100
COc1cc2c(cc1S(=O)(=O)Nc1ccc(C(F)(F)F)cc1)C(=O)NC(C)(C)C(=O)N2 | 7.61
COc1cc(S(=O)(=O)Nc2ccc(C(F)(F)F)cc2)cc2c1NC(=O)C(C)(C)NC2=O | 0.109
Cc1c(S(=O)(=O)Nc2ccc(C(F)(F)F)cc2)ccc2c1C(=O)NC(C)(C)C(=O)N2 | 13.6
Cc1cc(S(=O)(=O)Nc2ccc(C(F)(F)F)cc2)cc2c1NC(=O)C(C)(C)NC2=O | 0.052
CC1(C)NC(=O)c2cc(S(=O)(=O)Nc3ccc(C(F)(F)F)cc3)ncc2NC1=O | 10.5
CC1(C)NC(=O)c2cc(S(=O)(=O)Nc3ccc(C(F)(F)F)cc3)cnc2NC1=O | > 66
CC1(C)NC(=O)c2cc(S(=O)(=O)Nc3ccc(F)cc3F)ccc2NC1=O | 0.058
Cc1cc(S(=O)(=O)Nc2ccc(F)cc2F)cc2c1NC(=O)C(C)(C)NC2=O | 0.016
CC1(C)NC(=O)c2cc(S(=O)(=O)Nc3ccc(F)cc3F)cc(C#N)c2NC1=O | 0.405
CCC1(C)NC(=O)c2cc(S(=O)(=O)Nc3ccc(F)cc3F)cc(Cl)c2NC1=O (stereo not given) | 0.009

Test system: not listed separately
Assay: Half life in mouse at 50 mg/kg, po
Format: ADME, organism-based
Design: dose 50 mg/kg, route oral
Settings: in vivo

SMILES | half-life [h]
CCC1(C)NC(=O)c2cc(S(=O)(=O)Nc3ccc(F)cc3F)cc(Cl)c2NC1=O (stereo not given) | 1.2

Test system: not listed separately
Assay: Half life in rat at 1 mg/kg, iv
Format: ADME, organism-based
Design: dose 1 mg/kg, route intravenous
Settings: in vivo

SMILES | half-life [h]
CCC1(C)NC(=O)c2cc(S(=O)(=O)Nc3ccc(F)cc3F)cc(Cl)c2NC1=O (stereo not given) | 1.3

Test system: not listed separately
Assay: Bioavailability in mouse at 50 mg/kg, po and 1 mg/kg, iv
Format: ADME, organism-based
Settings: in vivo

SMILES | bioavailability [%]
CCC1(C)NC(=O)c2cc(S(=O)(=O)Nc3ccc(F)cc3F)cc(Cl)c2NC1=O (stereo not given) | 74

Biological target: T1, Cytochrome P450 1A2 (Homo sapiens, UniProt P05177)
T1 sequence (P05177 whole entry): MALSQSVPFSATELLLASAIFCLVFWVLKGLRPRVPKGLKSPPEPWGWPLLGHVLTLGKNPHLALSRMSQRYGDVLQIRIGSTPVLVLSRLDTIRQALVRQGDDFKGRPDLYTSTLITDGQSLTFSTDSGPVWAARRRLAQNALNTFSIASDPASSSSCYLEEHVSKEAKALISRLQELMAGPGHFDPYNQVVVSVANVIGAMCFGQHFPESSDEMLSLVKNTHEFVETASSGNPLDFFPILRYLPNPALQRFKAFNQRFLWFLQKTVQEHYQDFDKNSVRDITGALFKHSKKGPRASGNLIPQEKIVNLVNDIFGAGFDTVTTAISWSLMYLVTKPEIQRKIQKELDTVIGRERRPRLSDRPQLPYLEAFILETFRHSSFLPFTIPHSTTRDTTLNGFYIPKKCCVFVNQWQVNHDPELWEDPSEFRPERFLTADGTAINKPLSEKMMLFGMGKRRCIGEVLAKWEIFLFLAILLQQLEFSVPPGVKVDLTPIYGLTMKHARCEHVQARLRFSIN
Assay: Inhibition of CYP1A2 (unknown origin)
Format: ADME
Settings: not given

SMILES | IC50 [µM]
CCC1(C)NC(=O)c2cc(S(=O)(=O)Nc3ccc(F)cc3F)cc(Cl)c2NC1=O (stereo not given) | > 30

Test system: not listed separately
Assay: Half life in rat at 3 mg/kg, po
Format: ADME, organism-based
Design: dose 3 mg/kg, route oral
Settings: in vivo

SMILES | half-life [h]
CCC1(C)NC(=O)c2cc(S(=O)(=O)Nc3ccc(F)cc3F)cc(Cl)c2NC1=O (stereo not given) | 2.4

Test system: not listed separately
Assay: Bioavailability in rat at 3 mg/kg, po and 1 mg/kg, iv
Format: ADME, organism-based
Settings: in vivo

SMILES | bioavailability [%]
CCC1(C)NC(=O)c2cc(S(=O)(=O)Nc3ccc(F)cc3F)cc(Cl)c2NC1=O (stereo not given) | 69

Biological target: Cytochrome P450 2C9 (Homo sapiens, UniProt P11712)
Sequence (P11712 whole entry): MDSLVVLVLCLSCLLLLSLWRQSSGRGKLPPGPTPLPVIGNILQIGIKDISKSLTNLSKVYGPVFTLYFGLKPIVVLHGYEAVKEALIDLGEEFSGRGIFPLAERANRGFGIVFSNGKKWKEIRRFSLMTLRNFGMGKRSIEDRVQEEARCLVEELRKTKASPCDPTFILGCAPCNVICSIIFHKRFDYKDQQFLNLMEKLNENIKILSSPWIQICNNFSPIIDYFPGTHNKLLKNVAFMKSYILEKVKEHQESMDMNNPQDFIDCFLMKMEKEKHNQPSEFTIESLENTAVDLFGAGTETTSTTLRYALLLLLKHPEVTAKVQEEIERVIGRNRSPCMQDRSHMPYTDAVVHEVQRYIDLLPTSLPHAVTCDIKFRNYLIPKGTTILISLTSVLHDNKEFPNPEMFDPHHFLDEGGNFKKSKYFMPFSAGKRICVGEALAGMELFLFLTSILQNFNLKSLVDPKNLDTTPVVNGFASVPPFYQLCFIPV
Assay: Inhibition of CYP2C9 (unknown origin)
Format: ADME
Settings: not given

SMILES | IC50 [µM]
CCC1(C)NC(=O)c2cc(S(=O)(=O)Nc3ccc(F)cc3F)cc(Cl)c2NC1=O (stereo not given) | > 30

Test system: not listed separately
Assay: Volume of distribution at steady state in rat at 3 mg/kg, po and 1 mg/kg, iv
Format: ADME, organism-based
Settings: in vivo, read-out: Vdss

SMILES | Vd [L/kg]
CCC1(C)NC(=O)c2cc(S(=O)(=O)Nc3ccc(F)cc3F)cc(Cl)c2NC1=O (stereo not given) | 0.4

Test system: not listed separately
Assay: Lipophilicity, log D of the compound at pH 7.4 after 30 mins by shake-flask method
Settings: buffer, pH 7.4, logD

SMILES | logD at 0.5 h
CC[C@]1(C)NC(=O)c2cc(S(=O)(=O)Nc3ccc(F)cc3F)ccc2NC1=O | 1.7
CC[C@]1(C)NC(=O)c2cc(S(=O)(=O)Nc3ccc(C(F)(F)F)cc3F)ccc2NC1=O | 1.7
COc1c(S(=O)(=O)Nc2ccc(C(F)(F)F)cc2)ccc2c1C(=O)NC(C)(C)C(=O)N2 | 1.9
COc1cc2c(cc1S(=O)(=O)Nc1ccc(C(F)(F)F)cc1)C(=O)NC(C)(C)C(=O)N2 | 2.8
COc1cc(S(=O)(=O)Nc2ccc(C(F)(F)F)cc2)cc2c1NC(=O)C(C)(C)NC2=O | 2.6
Cc1cc(S(=O)(=O)Nc2ccc(C(F)(F)F)cc2)cc2c1NC(=O)C(C)(C)NC2=O | 2.6
CC1(C)NC(=O)c2cc(S(=O)(=O)Nc3ccc(C(F)(F)F)cc3)ncc2NC1=O | 1.6
CC1(C)NC(=O)c2cc(S(=O)(=O)Nc3ccc(C(F)(F)F)cc3)cnc2NC1=O | 1.8
CC1(C)NC(=O)c2cc(S(=O)(=O)Nc3ccc(F)cc3F)ccc2NC1=O | 1.3
Cc1cc(S(=O)(=O)Nc2ccc(F)cc2F)cc2c1NC(=O)C(C)(C)NC2=O | 1.4
CCC1(C)NC(=O)c2cc(S(=O)(=O)Nc3ccc(F)cc3F)cc(Cl)c2NC1=O (stereo not given) | 1.9

Test system: not listed separately
Assay: Unbound fraction in rat plasma by equilibrium dialysis method
Format: ADME, cell-free
Settings: not given

SMILES | fraction unbound
CCC1(C)NC(=O)c2cc(S(=O)(=O)Nc3ccc(F)cc3F)cc(Cl)c2NC1=O (stereo not given) | 0.03

Biological target: Cytochrome P450 2C19 (Homo sapiens, UniProt P33261)
Sequence (P33261 whole entry): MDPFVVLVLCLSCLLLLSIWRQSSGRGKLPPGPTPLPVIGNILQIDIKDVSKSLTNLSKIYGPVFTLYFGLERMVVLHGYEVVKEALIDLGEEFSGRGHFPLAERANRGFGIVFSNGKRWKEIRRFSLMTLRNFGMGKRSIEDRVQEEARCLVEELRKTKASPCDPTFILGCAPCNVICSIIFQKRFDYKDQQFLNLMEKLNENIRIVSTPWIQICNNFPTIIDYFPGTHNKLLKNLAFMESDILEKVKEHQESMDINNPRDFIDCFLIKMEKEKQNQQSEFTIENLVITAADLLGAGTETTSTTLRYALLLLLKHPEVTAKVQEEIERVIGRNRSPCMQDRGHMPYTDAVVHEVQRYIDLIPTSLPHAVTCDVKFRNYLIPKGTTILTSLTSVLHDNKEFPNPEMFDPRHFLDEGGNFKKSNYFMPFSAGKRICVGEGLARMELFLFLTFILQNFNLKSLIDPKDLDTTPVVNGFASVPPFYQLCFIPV
Assay: Inhibition of CYP2C19 (unknown origin)
Format: ADME
Settings: not given

SMILES | IC50 [µM]
CCC1(C)NC(=O)c2cc(S(=O)(=O)Nc3ccc(F)cc3F)cc(Cl)c2NC1=O (stereo not given) | 27

Test system: not listed separately
Assay: Volume of distribution at steady state in mouse at 50 mg/kg, po and 1 mg/kg, iv
Format: ADME, organism-based
Settings: in vivo, read-out: Vdss

SMILES | Vd [L/kg]
CCC1(C)NC(=O)c2cc(S(=O)(=O)Nc3ccc(F)cc3F)cc(Cl)c2NC1=O (stereo not given) | 0.5

Test system: not listed separately
Assay: Plasma clearance in rat at 3 mg/kg, po and 1 mg/kg, iv
Format: ADME, organism-based
Settings: not given

SMILES | clearance [mL/min/kg]
CCC1(C)NC(=O)c2cc(S(=O)(=O)Nc3ccc(F)cc3F)cc(Cl)c2NC1=O (stereo not given) | 4.1

Test system: not listed separately
Assay: Aqueous solubility of the compound in phosphate buffer at pH 7.4 after 24 hrs by LC-UVMS analysis
Format: physicochemical
Settings: not given

SMILES | solubility at 24 h [µM]
CCC1(C)NC(=O)c2cc(S(=O)(=O)Nc3ccc(F)cc3F)cc(Cl)c2NC1=O (stereo not given) | 150 (≈ 66.6 µg/mL)

Test system: not listed separately
Assay: Half life in mouse at 1 mg/kg, iv
Format: ADME, organism-based
Design: dose 1 mg/kg, route intravenous
Settings: in vivo

SMILES | half-life [h]
CCC1(C)NC(=O)c2cc(S(=O)(=O)Nc3ccc(F)cc3F)cc(Cl)c2NC1=O (stereo not given) | 0.2

Test system: not listed separately
Assay: Unbound fraction in mouse plasma by equilibrium dialysis method
Format: ADME, cell-free
Settings: not given

SMILES | fraction unbound
CCC1(C)NC(=O)c2cc(S(=O)(=O)Nc3ccc(F)cc3F)cc(Cl)c2NC1=O (stereo not given) | 0.037

Test system: not listed separately
Assay: Plasma clearance in mouse at 50 mg/kg, po and 1 mg/kg, iv
Format: ADME, organism-based
Settings: not given

SMILES | clearance [mL/min/kg]
CCC1(C)NC(=O)c2cc(S(=O)(=O)Nc3ccc(F)cc3F)cc(Cl)c2NC1=O (stereo not given) | 29

Reference: ChEMBL document CHEMBL3132851, “Achieving improved permeability by hydrogen bond donor modulation in a series of MGAT2 inhibitors” (Medchemcomm, 2013)
